Reference: paper PMC10610379, “Epidrugs as Promising Tools to Eliminate Plasmodium falciparum Artemisinin-Resistant and Quiescent Parasites” (Pharmaceutics, 2023)

Key:
[1] = tested on: Plasmodium falciparum F32-TEM (artemisinin-sensitive twin line); test: Standard chemosensitivity assay (SYBR Green I), F32-TEM; type: cell-based; settings: Plasmodium falciparum; F32-TEM, 48 h incubation, SYBR Green I; mean ± SEM of 3 experiments (* mean of 2); read-out: Antiplasmodial Activity: IC50, F32-TEM
Protocol: (§1) They differ by eight mutations in seven genes (PF3D7_0110400, PF3D7_1343700, PF3D7_0213400, PF3D7_1115700, PF3D7_1302100, PF3D7_1459600, PF3D7_1464500) among them the M476I mutation on the kelch13 gene. F32-ART and F32-TEM strains have RSA^0–3 h values up to 12% and less than 0.1%, respectively. […] Both strains were cultured, in the same conditions, according to the Trager and Jensen protocol with modifications. Briefly, parasites were cultivated in RPMI-1640 medium (Biowest) at 2% hematocrit in human red blood cells and 5% human serum (EFS, French Blood Bank) under 5% CO2 in a humid atmosphere at 37 °C.
(§2) The antimalarial activities of the compounds were evaluated on both strains. […] Antimalarial activities were determined with the SYBR Green I method. Each drug concentration was tested in triplicate. The parasites were incubated with the drugs for 48 h. Plates were read on a BioTek FLX800 Microplate Fluorescence Reader (Bio-Tek instruments, Winooski, VT, USA) (λexcitation = 485 nm, λemission = 528 nm). Control parasite culture (i.e., RPMI with 0.5% DMSO) was referred to as 100% growth. IC50 and IC90 values were determined using GraphPad Prism version 7.05 (GraphPad Software, San Diego, CA, USA). Results were the mean of 3 independent experiments. When it is relevant, statistical significance between results obtained with both parasite strains was determined by a Mann–Whitney test using GraphPad Prism version 7.05.

[2] = tested on: H4IIErat; settings: read-out: Cytotoxicity: CC50 (H4IIErat), data from literature ref 54; cited from earlier work
[3] = tested on: ART-resistant parasites F32-ART at the quiescent stage; test: Quiescent-stage Survival Assay (QSA), 48-h exposure; type: cell-based, Plasmodium falciparum
Protocol: The sensitivity of the ART-resistant parasites F32-ART at the quiescent stage towards the different molecules was determined using the QSA (Quiescent-stage Survival Assay), as previously described.
Epidrugs were tested at their IC90 values. In the present study, quiescence was induced using 3 µM of ART or 700 nM of DHA [28]. Thus, D-sorbitol synchronized ring-stage parasites at 3% parasitemia and 2% hematocrit (5 mL of culture per well in 6-well plates) were first exposed to 6 h of ART or DHA to induce quiescence and then to 48 h of the combination “ART or DHA + compound to be tested”. The combinations “ART 6 h/ART 48 h” or “DHA 6 h/DHA 48 h” were used as controls. The compounds were evaluated, in parallel, on proliferating parasites, i.e., without any pre-treatment. After drug exposure, parasite cultures were washed with 40 mL of RPMI-1640 medium and cultured in drug-free conditions supplemented with 10% human serum in new wells. The parasitemia for each condition was then microscopically monitored every 2 days. Culture media were renewed twice a week and 25 µL of fresh red blood cells were added once a week. Obtained data were used to perform Kaplan–Meier survival analyses considering censored data. The outcome was defined as the day when parasite cultures reached the initial parasitemia (3%) and data were considered as censored if no parasite recrudescence was observed during the 30-day experiment timeframe. When relevant, statistical significance between results obtained for the conditions “ART/ART” and “ART/ART + compound to be tested” or “DHA/DHA” and “DHA/DHA + compound to be tested” was determined by a Log Rank (Mantel Cox) test using GraphPad Prism version 7.05. For the best compounds targeting histones, in order to compare western blots data, modified QSAs were carried out by comparing “DHA 6 h/DHA 24 h” versus “DHA 6 h/DHA + compound to be tested 24 h”.

[4] = tested on: Plasmodium falciparum F32-ART (artemisinin-resistant strain); test: Standard chemosensitivity assay (SYBR Green I), F32-ART; type: cell-based; settings: for IC50: Plasmodium falciparum, F32-ART, 48 h incubation, SYBR Green I, mean ± SEM of 3 experiments (* mean of 2), read-out: Antiplasmodial Activity: IC50, F32-ART; for Selectivity Index CC50/IC50: ratio cytotoxicity (mammalian cell type of the CC50)/antiplasmodial activity on F32-ART
Protocol: as §1, §2

[5] = tested on: NIH3T3; design: method as in PMID 28644986; settings: data from literature ref 50, read-out: Cytotoxicity: CC50 (NIH3T3); cited from earlier work
[6] = tested on: HeLa; settings: cited from earlier work
[7] = tested on: human mesenchymal stem; design: method as in PMID 30237855; settings: data from literature ref 53, read-out: Cytotoxicity: CC50 (human mesenchymal stem); cited from earlier work
[8] = tested on: HL-60; settings: read-out: Cytotoxicity: CC50 (HL-60), data from literature ref 49; cited from earlier work

| Structure (SMILES) | IC50 [1] [nM] | CC50 [2] [nM] | Delay in parasite recrudescence time (difference between median recrudescence times), ART/ART + compound vs ART/ART ([3]; quiescence induced with ART 3 µM 6 h, then 48 h ART + compound at its IC90) [days] | Delay in recrudescence time, DHA/DHA + compound vs DHA/DHA ([3]; quiescence induced with DHA 700 nM 6 h, then 48 h DHA + compound at its IC90) [days] | IC50 [4] [nM] | Selectivity Index CC50/IC50 [4] | CC50 [5] [nM] | CC50 [6] [nM] | CC50 [7] [nM] | CC50 [8] [nM] |
| --- | --- | --- | --- | --- | --- | --- | --- | --- | --- | --- |
| Cc1cc(Nc2ccc(NC(=O)c3ccc(Nc4ccnc5ccccc45)cc3)cc2)nc(N)n1 [SGI-1027] | 54 ± 22 | > 50000 | 8 | ≥ 6 | 63 ± 13 | >790 | – | – | – | – |
| C#CCN(Cc1ccc2nc(N)[nH]c(=O)c2c1)c1ccc(C(=O)N[C@@H](CCC(=O)O)C(=O)O)cc1 [CB3717] | 1000 | – | – | – | 1000 | >20 | > 20000 | – | – | – |
| NNc1nncc2ccccc12 [Hydralazine] | > 10000 | – | – | – | > 10000 | <4 | – | 40000 | – | – |
| Clc1ccc(N/N=C(\c2ccccc2)c2ccccn2)nc1 [JIB-04] | 940 ± 30 | – | – | – | 560 ± 80 | >18 | – | – | > 10000 | – |
| CN1C(=O)[C@@]23C[C@]4([C@]56C[C@@]78SS[C@@](CO)(C(=O)N7[C@H]5Nc5ccccc56)N(C)C8=O)c5ccccc5N[C@@H]4N2C(=O)[C@]1(CO)SS3 [Chaetocin] | 730 ± 90 | – | – | – | 640 ± 160 | 0.2 | – | – | – | 130 |
